Converted amounts (≈) assume the structure as drawn.
Tests used:
Plasmodium falciparum = test: Antimalarial activity against asexual blood stage Plasmodium falciparum infected in RBC measured after 72 hrs by LDH release assay; format: functional, organism-based; conditions: Erythrocyte
Plasmepsin X = Plasmepsin X (Plasmodium falciparum (isolate 3D7), UniProt Q8IAS0); test: Inhibition of Plasmodium falciparum 3D7 HA-glms-tagged PMX using DABCYL-HSFIQEGKEE-EDANS as substrate measured after 2 hrs by FRET assay
Plasmepsin X, sequence (Q8IAS0 whole entry): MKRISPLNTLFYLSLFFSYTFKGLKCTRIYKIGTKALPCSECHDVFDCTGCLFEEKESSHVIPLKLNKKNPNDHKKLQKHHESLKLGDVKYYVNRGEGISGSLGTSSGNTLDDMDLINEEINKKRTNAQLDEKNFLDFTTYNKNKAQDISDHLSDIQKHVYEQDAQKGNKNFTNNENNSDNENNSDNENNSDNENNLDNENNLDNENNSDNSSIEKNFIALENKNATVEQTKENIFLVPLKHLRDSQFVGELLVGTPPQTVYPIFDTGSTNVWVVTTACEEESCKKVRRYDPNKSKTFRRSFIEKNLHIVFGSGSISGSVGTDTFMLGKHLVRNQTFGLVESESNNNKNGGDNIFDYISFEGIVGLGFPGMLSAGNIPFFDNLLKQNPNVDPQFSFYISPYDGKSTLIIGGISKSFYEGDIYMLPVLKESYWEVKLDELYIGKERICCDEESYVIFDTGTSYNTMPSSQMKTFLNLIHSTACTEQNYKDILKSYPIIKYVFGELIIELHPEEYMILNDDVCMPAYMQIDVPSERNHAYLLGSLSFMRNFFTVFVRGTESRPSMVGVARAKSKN

Plasmepsin IX = target: T1, Plasmepsin IX (Plasmodium falciparum, UniProt Q8ILG2); test: Inhibition of Plasmodium falciparum 3D7 HA-glms-tagged PMIX using DABCYL-HSFIQEGKEE-EDANS as substrate measured after 2 hrs by FRET assay
T1 sequence (Q8ILG2 whole entry): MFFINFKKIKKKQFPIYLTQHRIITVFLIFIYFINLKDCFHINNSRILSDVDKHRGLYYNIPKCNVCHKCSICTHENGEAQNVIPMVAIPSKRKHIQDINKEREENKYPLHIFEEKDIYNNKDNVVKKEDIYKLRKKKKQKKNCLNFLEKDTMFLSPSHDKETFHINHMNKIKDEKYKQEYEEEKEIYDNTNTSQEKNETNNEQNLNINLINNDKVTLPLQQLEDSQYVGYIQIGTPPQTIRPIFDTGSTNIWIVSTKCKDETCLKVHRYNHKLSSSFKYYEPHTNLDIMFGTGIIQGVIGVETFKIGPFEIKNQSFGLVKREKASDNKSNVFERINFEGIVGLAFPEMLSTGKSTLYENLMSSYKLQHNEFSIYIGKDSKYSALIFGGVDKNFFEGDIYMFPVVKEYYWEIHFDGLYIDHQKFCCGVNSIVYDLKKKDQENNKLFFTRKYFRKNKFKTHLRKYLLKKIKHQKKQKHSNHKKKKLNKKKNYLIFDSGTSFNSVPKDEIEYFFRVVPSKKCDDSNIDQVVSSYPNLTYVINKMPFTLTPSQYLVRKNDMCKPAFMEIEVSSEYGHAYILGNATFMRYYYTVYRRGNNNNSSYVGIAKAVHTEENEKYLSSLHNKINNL

[1] = Lipophilicity, log D of compound at pH 7.4; format: physicochemical; conditions: buffer
[2] = Kinetic solubility of the compound; format: physicochemical; conditions: read-out: Kinetic_solubility
[3] = Apparent permeability across apical to basolateral side in MDCK cells; format: ADME, cell-based, Canis lupus familiaris; conditions: dog
[4] = Mean residence time in rat; format: ADME; conditions: in vivo
[5] = Plasma clearance in rat; format: ADME
[6] = Unbound clearance in rat; format: ADME; conditions: in vivo
[7] = Volume of distribution in rat; format: ADME; conditions: in vivo
[8] = Unbound volume of distribution in rat; format: ADME; conditions: in vivo
[9] = Oral bioavailability in rat; format: ADME, organism-based; conditions: in vivo
[10] = Protein binding in rat plasma; format: ADME, cell-free; conditions: read-out: PPB (converted)
[11] = Mean residence time in mouse; format: ADME, organism-based; conditions: in vivo
[12] = Plasma clearance in mouse; format: ADME, organism-based
[13] = Unbound plasma clearance in mouse; format: ADME, organism-based; conditions: in vivo
[14] = Volume of distribution in mouse; format: ADME, organism-based; conditions: in vivo
[15] = Unbound volume of distribution in mouse; format: ADME, organism-based; conditions: in vivo
[16] = Oral bioavailability in mouse; format: ADME, organism-based; conditions: in vivo
[17] = Protein binding in mouse plasma; format: ADME, cell-free; conditions: read-out: PPB (converted)
[18] = target: Plasmepsin X (Plasmodium falciparum (isolate 3D7)) (UniProt Q8IAS0); test: Inhibition of Plasmodium falciparum 3D7 HA-glms-tagged PMX at 10 nM using DABCYL-HSFIQEGKEE-EDANS as substrate measured after 2 hrs by FRET assay relative to control
Plasmepsin X (Plasmodium falciparum (isolate 3D7)), sequence (Q8IAS0 whole entry): as the sequence (Q8IAS0 whole entry) above

[19] = target: T2, Plasmepsin IX (Plasmodium falciparum) (UniProt Q8ILG2); test: Inhibition of Plasmodium falciparum 3D7 HA-glms-tagged PMIX at 10 nM using DABCYL-HSFIQEGKEE-EDANS as substrate measured after 2 hrs by FRET assay relative to control
T2 sequence (whole entry): T1 sequence (Q8ILG2 whole entry)

Structure (SMILES): CC(NC(=O)c1cccc(CN2C(=N)N[C@](C)(C(C)C)CC2=O)c1)c1ccccn1 (mixture of isomers)
- EC50 (Plasmodium falciparum): > 1000 nM

Structure (SMILES): CC(C)[C@]1(C)CC(=O)N(Cc2cccc(C(=O)N[C@@H](C)c3ccccc3)c2)C(=N)N1
- EC50 (Plasmodium falciparum): 308 nM

Structure (SMILES): CCC1(CC)CC(=O)N(Cc2cccc(C(=O)N[C@H]3CCOc4ccccc43)c2)C(=N)N1
- EC50 (Plasmodium falciparum): 0.4 nM

Structure (SMILES): CCC1(CC)CC(=O)N([C@@H]2CCOc3ccc(C(=O)NC4CCOc5ccccc54)cc32)C(=N)N1 (single isomer, unassigned)
- EC50 (Plasmodium falciparum): 2.5 nM
- IC50 (Plasmepsin X): 0.07 nM
- IC50 (Plasmepsin IX): 2.2 nM
- logD [1]: 2.1
- solubility kinetic [2]: 0.2 µM (≈ 0.0953 µg/mL)
- Papp A→B [3]: 8.8 ×10⁻⁶ cm/s
- MRT [4]: 2.7 h
- clearance [5]: 79 mL/min/kg
- CL free [6]: 518 mL/min/kg
- Vd [7]: 12 L/kg
- Vdu [8]: 80 L/kg
- bioavailability [9]: 27%
- fraction unbound [10]: 0.152
- MRT [11]: 1.3 h
- clearance [12]: 68 mL/min/kg
- CL free [13]: 1278 mL/min/kg
- Vd [14]: 5.4 L/kg
- Vdu [15]: 102 L/kg
- bioavailability [16]: 4%
- fraction unbound [17]: 0.053

Structure (SMILES): CCNC(=O)c1cccc(CN2C(=N)N[C@](C)(C(C)C)CC2=O)c1
- EC50 (Plasmodium falciparum): > 1000 nM

Structure (SMILES): CC(C)C[C@H](c1ccc(C(F)(F)F)c(C(=O)N2Cc3nccnc3C2)c1)N1C(=N)N[C@](CC2CC2)(c2ccccc2)CC1=O
- EC50 (Plasmodium falciparum): 10 nM
- IC50 (Plasmepsin X): 5.7 nM

Structure (SMILES): CC(C)[C@]1(C)CC(=O)N(Cc2cc(F)cc(C(=O)N[C@@H](C)c3ccccc3)c2)C(=N)N1
- EC50 (Plasmodium falciparum): 340 nM

Structure (SMILES): CC(C)[C@]1(C)CC(=O)N(Cc2cccc(C(=O)NC3COCc4ccccc43)c2)C(=N)N1 (mixture of isomers)
- EC50 (Plasmodium falciparum): 53 nM

Structure (SMILES): CCC1(CC)CC(=O)N([C@@H]2CCOc3ccc(C(=O)NC4CC(=O)Oc5ccccc54)cc32)C(=N)N1 (mixture of isomers)
- EC50 (Plasmodium falciparum): 220 nM
- inhibition [18]: 40%
- inhibition [19]: 12%

Structure (SMILES): CCC1(CC)CC(=O)N([C@@H]2CCOc3ccc(C(=O)N[C@H]4CCS(=O)(=O)c5ccccc54)cc32)C(=N)N1
- EC50 (Plasmodium falciparum): 18 nM
- IC50 (Plasmepsin X): 0.3 nM
- IC50 (Plasmepsin IX): 24 nM

Structure (SMILES): CCC1(CC)CC(=O)N([C@H](CCO)c2cccc(C(=O)N[C@@H](C)c3ccccc3)c2)C(=N)N1
- EC50 (Plasmodium falciparum): 210 nM

Structure (SMILES): CCC1(CC)CC(=O)N([C@@H]2CCOc3ccc(C(=O)N[C@H]4CCCOc5ccccc54)cc32)C(=N)N1
- EC50 (Plasmodium falciparum): 2.8 nM
- IC50 (Plasmepsin X): 0.6 nM
- IC50 (Plasmepsin IX): 68 nM

Structure (SMILES): CCC1(CC)CC(=O)N([C@@H]2CCOc3ccc(C(=O)N[C@@H]4c5ccccc5OC4(C)C)cc32)C(=N)N1
- EC50 (Plasmodium falciparum): 1.4 nM
- IC50 (Plasmepsin X): 0.4 nM
- IC50 (Plasmepsin IX): 12 nM

Structure (SMILES): CC(C)CC(c1ccc(C(F)(F)F)c(C(=O)N2Cc3nccnc3C2)c1)N1C(=N)N[C@](CC2CC2)(c2ccccc2)CC1=O (stereo partly drawn)
- EC50 (Plasmodium falciparum): 17 nM

Structure (SMILES): CC(C)[C@]1(C)CC(=O)N([C@@H](c2ccccc2)c2cccc(C(=O)N[C@@H](C)c3ccccc3)c2)C(=N)N1
- EC50 (Plasmodium falciparum): 440 nM

Structure (SMILES): C[C@H](NC(=O)c1cc(F)cc(CN2C(=N)NC3(CCCCC3)CC2=O)c1)c1ccccc1
- EC50 (Plasmodium falciparum): 250 nM

Structure (SMILES): CC(C)[C@]1(C)CC(=O)N(Cc2cccc(C(=O)NCCc3ccccc3)c2)C(=N)N1
- EC50 (Plasmodium falciparum): > 1000 nM

Structure (SMILES): CC(C)[C@]1(C)CC(=O)N([C@H](c2ccccc2)c2cccc(C(=O)N[C@@H](C)c3ccccc3)c2)C(=N)N1
- EC50 (Plasmodium falciparum): 4.6 nM
- IC50 (Plasmepsin X): 1.9 nM

Structure (SMILES): CCC1(CC)CC(=O)N([C@H](CCOC)c2cccc(C(=O)N[C@@H](C)c3ccccc3)c2)C(=N)N1
- EC50 (Plasmodium falciparum): 40 nM

Structure (SMILES): C[C@H](NC(=O)c1cc(F)cc(CN2C(=N)NC(C)(C)CC2=O)c1)c1ccccc1
- EC50 (Plasmodium falciparum): > 1000 nM

Structure (SMILES): CCC1(CC)CC(=O)N(Cc2cc(C(=O)N[C@H]3CCOc4ccccc43)ccn2)C(=N)N1
- EC50 (Plasmodium falciparum): 12 nM

Structure (SMILES): CCC1(CC)CC(=O)N(Cc2ccnc(C(=O)N[C@H]3CCOc4ccccc43)n2)C(=N)N1
- EC50 (Plasmodium falciparum): 65 nM

Structure (SMILES): CC(C)C[C@@H](c1ccc(C(F)(F)F)c(C(=O)N2Cc3nccnc3C2)c1)N1C(=N)N[C@](CC2CC2)(c2ccccc2)CC1=O
- EC50 (Plasmodium falciparum): 690 nM

Structure (SMILES): CCC1(CC)CC(=O)N([C@H](c2ccccc2)c2cccc(C(=O)N[C@@H](C)c3ccccc3)c2)C(=N)N1
- EC50 (Plasmodium falciparum): 1 nM
